Data as given in the NIST ThermoML archive (doi:10.1021/je9004905).
Several values for one entry are separate records, joined by “and”; a condition that tells them apart may be missing. Identical values can stand only once.

Details: Liquid, Closed cell (Static) method

CC(=O)CO [acetol]
Details	vapor or sublimation pressure
273.22 K	0.127 kPa
275.48 K	0.136 kPa
277.78 K	0.162 kPa
278.55 K	0.167 kPa and 0.172 kPa
280.9 K	0.201 kPa
281.69 K	0.205 kPa and 0.21 kPa
289.86 K	0.356 kPa
290.7 K	0.363 kPa and 0.36 kPa
293.26 K	0.431 kPa
295.86 K	0.516 kPa and 0.495 kPa
296.74 K	0.531 kPa
300.3 K	0.617 kPa
301.2 K	0.642 kPa
302.11 K	0.717 kPa
303.03 K	0.746 kPa
303.95 K	0.817 kPa

O=CCO [2-hydroxyacetaldehyde]
Details	vapor or sublimation pressure [kPa]
295.85 K	0.0037
305.1 K	0.009
305.51 K	0.0096
319.5 K	0.0335
319.84 K	0.0335
322.38 K	0.0368
323.64 K	0.0458
327.73 K	0.062
333.04 K	0.0984
339.32 K	0.153
340.91 K	0.17
341.95 K	0.182
342.82 K	0.198
346.83 K	0.253
355.98 K	0.486

OCCO [1,2-ethanediol]
Details	vapor or sublimation pressure [kPa]
307.7 K	0.028
312.6 K	0.041
316.5 K	0.055
318.8 K	0.061
322.1 K	0.077
326.1 K	0.107
328.2 K	0.124
334.5 K	0.196
335.2 K	0.201
340.2 K	0.278
347.9 K	0.454
359.2 K	0.9
367.9 K	1.483
373.4 K	1.95
384.5 K	3.467
